pIC50: −log10 of the molar value. Where a name gives a salt, the structure may show the parent alone.
What was measured:
[1] = biological target: T1, IKKε (Homo sapiens, UniProt Q14164); assay: IKKe Biochemical Assay; details: read-out: IKKε IC50
T1 sequence (Q14164 1-716): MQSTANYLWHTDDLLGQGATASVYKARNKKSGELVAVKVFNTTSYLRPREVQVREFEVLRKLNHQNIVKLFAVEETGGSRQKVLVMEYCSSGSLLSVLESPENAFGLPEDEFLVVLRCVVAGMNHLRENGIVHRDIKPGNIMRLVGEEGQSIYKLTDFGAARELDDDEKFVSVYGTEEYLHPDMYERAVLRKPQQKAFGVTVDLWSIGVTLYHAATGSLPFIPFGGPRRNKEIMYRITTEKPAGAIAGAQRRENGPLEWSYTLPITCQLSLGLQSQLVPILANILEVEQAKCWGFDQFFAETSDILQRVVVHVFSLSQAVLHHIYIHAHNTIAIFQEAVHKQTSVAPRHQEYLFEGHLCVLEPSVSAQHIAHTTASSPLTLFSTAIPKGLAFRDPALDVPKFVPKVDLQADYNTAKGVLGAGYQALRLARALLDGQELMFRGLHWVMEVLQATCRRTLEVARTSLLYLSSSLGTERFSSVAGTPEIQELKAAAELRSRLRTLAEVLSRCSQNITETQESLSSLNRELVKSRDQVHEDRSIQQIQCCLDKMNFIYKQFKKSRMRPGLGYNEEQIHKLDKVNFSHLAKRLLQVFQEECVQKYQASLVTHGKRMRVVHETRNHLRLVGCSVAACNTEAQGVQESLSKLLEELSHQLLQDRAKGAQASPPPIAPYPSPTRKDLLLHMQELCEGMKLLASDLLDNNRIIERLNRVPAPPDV
Method in brief: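 Activity was measured as mobility-shift separation of phosphorylated from unphosphorylated substrate on a LabChip EZ Reader. Compound was titrated from 30 uM final in 10 points, 1:4 steps, with 1% DMSO, and enzyme plus substrate reacted 90 min at 25° C before stop buffer. Control wells held 10 uM staurosporine.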

[2] = biological target: T2, TBK1 (Homo sapiens, UniProt Q9UHD2); assay: TBK Biochemical Assay; details: read-out: TBK1 IC50
T2 sequence (Q9UHD2 1-729): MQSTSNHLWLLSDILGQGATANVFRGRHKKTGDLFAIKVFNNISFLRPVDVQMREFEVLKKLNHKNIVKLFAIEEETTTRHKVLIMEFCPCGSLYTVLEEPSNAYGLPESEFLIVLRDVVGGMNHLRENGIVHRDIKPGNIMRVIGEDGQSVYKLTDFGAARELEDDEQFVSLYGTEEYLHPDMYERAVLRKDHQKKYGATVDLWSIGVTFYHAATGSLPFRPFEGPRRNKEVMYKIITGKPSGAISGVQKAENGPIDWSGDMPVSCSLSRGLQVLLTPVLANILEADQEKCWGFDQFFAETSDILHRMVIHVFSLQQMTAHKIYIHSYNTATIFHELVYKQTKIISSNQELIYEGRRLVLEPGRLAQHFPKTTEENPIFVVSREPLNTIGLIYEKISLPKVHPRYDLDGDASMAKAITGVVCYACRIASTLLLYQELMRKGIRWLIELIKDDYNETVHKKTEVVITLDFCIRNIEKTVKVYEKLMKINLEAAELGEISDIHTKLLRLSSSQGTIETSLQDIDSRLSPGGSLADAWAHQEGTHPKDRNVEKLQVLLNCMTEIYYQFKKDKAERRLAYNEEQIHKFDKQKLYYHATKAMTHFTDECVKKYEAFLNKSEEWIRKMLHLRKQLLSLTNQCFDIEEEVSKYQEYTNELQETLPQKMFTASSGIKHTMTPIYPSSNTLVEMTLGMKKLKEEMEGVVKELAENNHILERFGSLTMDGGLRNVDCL
Method in brief: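 Caliper LabChip mobility-shift readout of substrate and product after 90 min of TBK1 reaction at 25° C and stop-buffer addition. Compounds tested in 1:4 serial dilution over 10 points from 30 uM final at 1% DMSO; staurosporine 10 uM final defines full inhibition.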

[3] = system: phosphorylation of the IRF-3 protein in MDA-MB-468 cells; assay: pIRF3 immunocytochemistry cell based assay; details: Homo sapiens; MDA-MB-468 cells, Poly(I:C) stimulation; read-out: pIRF3 IC50
Method in brief: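 After 2 h stimulation with Poly(I:C) (10 ug/ml), following 1 h compound pre-treatment (10-point, 3-fold dilution, top 10 uM), MDA-MB-468 cells were fixed and stained with anti-pIRF3 antibody. pIRF3 fluorescence was normalized to PI staining or cell count on an Acumen cytometer. IC50 curves were derived from this.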

Compound	pIC50 [1]	pIC50 [2]	pIC50 [3]
COc1cc(C(=O)NC2CCN(C)C2)ccc1-c1cc2nccc(-c3ccc(OC4CCOCC4)c(C#N)c3)c2o1 (stereo not drawn) [Compound 64, 4-{7-[3-Cyano-4-(tetrahydro-pyran-4-yloxy)-phenyl]-furo[3,2-b]pyridin-2-yl}-3-methoxy-N-(1-methyl-pyrrolidin-3-yl)-benzamide]	> 7.00	> 7.00	6.00 to 7.00
COc1cc(C(=O)NC2C3COCC32)ccc1-c1cc2nccc(-c3ccc(OC4CCOCC4)c(C#N)c3)c2o1 (stereo not drawn) [Compound 65, 4-{7-[3-Cyano-4-(tetrahydro-pyran-4-yloxy)-phenyl]-furo[3,2-b]pyridin-2-yl}-3-methoxy-N-(3-oxa-bicyclo[3.1.0]hex-6-yl)-benzamide]	> 7.00	> 7.00	6.00 to 7.00
COc1cc(C(=O)NNC(=O)OC(C)(C)C)ccc1-c1cc2nccc(-c3ccc(OC4CCOCC4)c(C#N)c3)c2o1 [Compound 67, N′-(4-{7-[3-Cyano-4-(tetrahydro-pyran-4-yloxy)-phenyl]-furo[3,2-b]pyridin-2-yl}-3-methoxy-benzoyl)-hydrazinecarboxylic acid tert-butyl ester]	> 7.00	> 7.00	6.00 to 7.00
COc1cc(C(=O)NC2CCC(O)C2)ccc1-c1cc2nccc(-c3ccc(OC4CCOCC4)c(C#N)c3)c2o1 (stereo not drawn) [Compound 68, 4-{7-[3-Cyano-4-(tetrahydro-pyran-4-yloxy)-phenyl]-furo[3,2-b]pyridin-2-yl}-N-(3-hydroxy-cyclopentyl)-3-methoxy-benzamide]	> 7.00	> 7.00	6.00 to 7.00
COc1cc(C(=O)NCC2(F)COC2)ccc1-c1cc2nccc(-c3ccc(OC4CCOCC4)c(C#N)c3)c2o1 [Compound 69, 4-{7-[3-Cyano-4-(tetrahydro-pyran-4-yloxy)-phenyl]-furo[3,2-b]pyridin-2-yl}-N-(3-fluoro-oxetan-3-ylmethyl)-3-methoxy-benzamide]	> 7.00	> 7.00	6.00 to 7.00
COc1cc(C(=O)N2CCC(CO)CC2)ccc1-c1cc2nccc(-c3ccc(N4CC[C@H](F)C4)c(C#N)c3)c2o1 [Compound 70, 2-((S)-3-Fluoro-pyrrolidin-1-yl)-5-{2-[4-(4-hydroxymethyl-piperidine-1-carbonyl)-2-methoxy-phenyl]-furo[3,2-b]pyridin-7-yl}-benzonitrile]	> 7.00	> 7.00	6.00 to 7.00
COc1cc(C(=O)N(C)C)ccc1-c1cc2nccc(-c3ccc(OC4CCNCC4(F)F)c(C#N)c3)c2o1 (stereo not drawn) [Compound 71, 4-{7-[3-Cyano-4-(3,3-difluoro-piperidin-4-yloxy)-phenyl]-furo[3,2-b]pyridin-2-yl}-3-methoxy-N,N-dimethyl-benzamide hydrochloride]	> 7.00	> 7.00	> 7.00
COc1cc(C(=O)NC2CN3CCC2CC3)ccc1-c1cc2nccc(-c3ccc(N4CC[C@H](F)C4)c(C#N)c3)c2o1 (stereo partly drawn) [Compound 72, N-(1-Aza-bicyclo[2.2.2]oct-3-yl)-4-{7-[3-cyano-4-((S)-3-fluoro-pyrrolidin-1-yl)-phenyl]-furo[3,2-b]pyridin-2-yl}-3-methoxy-benzamide]	> 7.00	> 7.00	6.00 to 7.00
COc1cc(C(=O)N2CC3CN(C)CC3C2)ccc1-c1cc2nccc(-c3ccc(NC4CCOCC4)c(C#N)c3)c2o1 (stereo not drawn) [Compound 73, 5-{2-[2-Methoxy-4-(5-methyl-hexahydro-pyrrolo[3,4-c]pyrrole-2-carbonyl)-phenyl]-furo[3,2-b]pyridin-7-yl}-2-(tetrahydro-pyran-4-ylamino)-benzonitrile]	> 7.00	> 7.00	> 7.00
COc1cc(C(=O)NC2CC(O)C2)ccc1-c1cc2nccc(-c3ccc(OC4CCOCC4)c(C#N)c3)c2o1 (stereo not drawn) [Compound 75, 4-{7-[3-Cyano-4-(tetrahydro-pyran-4-yloxy)-phenyl]-furo[3,2-b]pyridin-2-yl}-N-(3-hydroxy-cyclobutyl)-3-methoxy-benzamide]	> 7.00	> 7.00	6.00 to 7.00

Reference: patent US10428080B2, “TBK/IKK inhibitor compounds and uses thereof” (Merck Patent GmbH, priority 2015, dated 2019)
